Article PMC7377239, “Cardiovascular Effects of Polychlorinated Biphenyls and Their Major Metabolites” (Environmental Health Perspectives, 2020)
Counter-ions that a name gives are not always drawn. Like-named read-outs stand apart in the source and are kept apart here.

Key:
ryanodine receptor (RyR) = tested on: ryanodine receptor (RyR); design: method as in Wong et al. 2001, 1997; Wong and Pessah 1997; conditions: mechanism involving the ryanodine receptor; ref Wong et al. 2001, 1997; Wong and Pessah 1997; cited from earlier work
[1] = tested on: porcine pulmonary artery–derived EC; design: method as in Hennig et al. 2002, 2005; Toborek et al. 1995; conditions: ref Hennig et al. 2002, 2005, Toborek et al. 1995; cited from earlier work
[2] = tested on: iCell cardiomyocytes (human iPSC-derived cardiomyocytes); assay: Intracellular Ca2+ flux / beating parameters in iCell cardiomyocytes (FLIPR tetra), 90 min or 24 h; format: cell-based; conditions: for activity at 0.01 µM / activity at 0.1 µM / activity at 1 µM / activity at 10 µM / activity at 100 µM: Homo sapiens, Cardiomyocyte, 0.00 µM = 100.00; for activity at 0.1 µM: 0.10 µM
Procedure, shortened: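 Gelatin-plated iCell cardiomyocytes (5,000/well) were dye-loaded for 2 h at 37 °C, then exposed for 90 min or 24 h to PCBs/metabolites (5× plates at 0.05–500 µM; 0.5% DMSO final) in triplicate. Ca2+ flux was read for 100 s at 8 Hz and 37 °C. Peak height, frequency, spacing CV and decay/rise ratio were vehicle-normalized and fitted with a four-parameter logistic model, with POD set at 1 SD of vehicle.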

zebrafish = tested on: zebrafish; design: method as in Li et al. 2014; Teixidó et al. 2019; conditions: ref Li et al. 2014; Teixidó et al. 2019; cited from earlier work
[3] = 1.5 h, read-out: cm.amp.avg.90min
[4] = 1.5 h, read-out: cm.amp.cv.90min
[5] = 1.5 h, read-out: cm.decay.rise.90min
[6] = 1.5 h, read-out: cm.spacing.cv.90min
[7] = 24 h, read-out: cm.amp.avg.24hrs
[8] = 24 h, read-out: cm.amp.cv.24hrs
[9] = 24 h, read-out: cm.decay.rise.24hrs
[10] = 24 h, read-out: cm.spacing.cv.24hrs

Structure (SMILES): Clc1ccc(Cl)c(-c2c(Cl)ccc(Cl)c2Cl)c1 [PCB 95, 2,2′,3,5′,6-pentachlorobiphenyl]
- cellular calcium release (ryanodine receptor (RyR)): sensitizing cellular calcium release

Structure (SMILES): Clc1cc(Cl)c(-c2cc(Cl)c(Cl)cc2Cl)cc1Cl [PCB 153, 2,2′,4,4′,5,5′-hexachlorobiphenyl]
- EC toxicity [1]: much less potent

Structure (SMILES): Clc1ccc(-c2cc(Cl)c(Cl)c(Cl)c2)cc1Cl [PCB 126, 3,3′,4,4′,5-pentachlorobiphenyl]
- inotropic effect (cell beating parameters) ([2]; iPSC-CMs, concentration-response 0.01-100 μM, 90 min and 24 h): positive inotropic effects
- cardiovascular toxicity in zebrafish (zebrafish): pericardial edema, cardiac looping defects, and circulatory failure
- EC toxicity [1]: potent inducers of EC toxicity

Structure (SMILES): O=S(=O)(O)Oc1cccc(-c2ccc(Cl)cc2)c1 [3'-yl PCB 3 sulfate]
- activity at 0.01 µM [2, 3]: 106%
- activity at 0.01 µM [2, 4]: 121%
- activity at 0.01 µM ([2]; 1.5 h, read-out: cm.bpm.90min): 96.5%
- activity at 0.01 µM [2, 5]: 95.8%
- activity at 0.01 µM [2, 6]: 108%
- activity at 0.1 µM [2, 3]: 106%
- activity at 0.1 µM [2, 4]: 103%
- activity at 0.1 µM ([2]; 1.5 h, read-out: cm.bpm.90min): 100%
- activity at 0.1 µM [2, 5]: 99.3%
- activity at 0.1 µM [2, 6]: 110%
- activity at 1 µM [2, 3]: 111%
- activity at 1 µM [2, 4]: 84.7%
- activity at 1 µM ([2]; 1.5 h, read-out: cm.bpm.90min): 99.1%
- activity at 1 µM [2, 5]: 96.2%
- activity at 1 µM [2, 6]: 94.2%
- activity at 10 µM [2, 3]: 109%
- activity at 10 µM [2, 4]: 88.3%
- activity at 10 µM ([2]; 1.5 h, read-out: cm.bpm.90min): 100%
- activity at 10 µM [2, 5]: 95.3%
- activity at 10 µM [2, 6]: 94.3%
- activity at 100 µM [2, 3]: 109%
- activity at 100 µM [2, 4]: 86.7%
- activity at 100 µM ([2]; 1.5 h, read-out: cm.bpm.90min): 91.5%
- activity at 100 µM [2, 5]: 99.4%
- activity at 100 µM [2, 6]: 107%
- activity at 0.01 µM [2, 7]: 79%
- activity at 0.01 µM [2, 8]: 31.6%
- activity at 0.01 µM ([2]; 24 h, read-out: cm.bpm.24hrs): 52.5%
- activity at 0.01 µM [2, 9]: 45.2%
- activity at 0.01 µM [2, 10]: 48.7%
- activity at 0.1 µM [2, 7]: 60.9%
- activity at 0.1 µM [2, 8]: 151%
- activity at 0.1 µM ([2]; 24 h, read-out: cm.bpm.24hrs): 102%
- activity at 0.1 µM [2, 9]: 90.7%
- activity at 0.1 µM [2, 10]: 98.6%
- activity at 1 µM [2, 7]: 86.6%
- activity at 1 µM [2, 8]: 96.4%
- activity at 1 µM ([2]; 24 h, read-out: cm.bpm.24hrs): 89.7%
- activity at 1 µM [2, 9]: 117%
- activity at 1 µM [2, 10]: 96.2%
- activity at 10 µM [2, 7]: 75%
- activity at 10 µM [2, 8]: 122%
- activity at 10 µM ([2]; 24 h, read-out: cm.bpm.24hrs): 101%
- activity at 10 µM [2, 9]: 98.6%
- activity at 10 µM [2, 10]: 93.8%
- activity at 100 µM [2, 7]: 85%
- activity at 100 µM [2, 8]: 91.8%
- activity at 100 µM ([2]; 24 h, read-out: cm.bpm.24hrs): 92.6%
- activity at 100 µM [2, 9]: 99%
- activity at 100 µM [2, 10]: 87.7%

Structure (SMILES): COc1ccc(-c2ccc(Cl)cc2)cc1 [4'-OMe PCB3]
- activity at 0.01 µM [2, 3]: 96.9%
- activity at 0.01 µM [2, 4]: 88.9%
- activity at 0.01 µM ([2]; 1.5 h, read-out: cm.bpm.90min): 103%
- activity at 0.01 µM [2, 5]: 99.4%
- activity at 0.01 µM [2, 6]: 117%
- activity at 0.1 µM [2, 3]: 93.5%
- activity at 0.1 µM [2, 4]: 102%
- activity at 0.1 µM ([2]; 1.5 h, read-out: cm.bpm.90min): 100%
- activity at 0.1 µM [2, 5]: 102%
- activity at 0.1 µM [2, 6]: 99.4%
- activity at 1 µM [2, 3]: 106%
- activity at 1 µM [2, 4]: 117%
- activity at 1 µM ([2]; 1.5 h, read-out: cm.bpm.90min): 96.5%
- activity at 1 µM [2, 5]: 95%
- activity at 1 µM [2, 6]: 92%
- activity at 10 µM [2, 3]: 103%
- activity at 10 µM [2, 4]: 96%
- activity at 10 µM ([2]; 1.5 h, read-out: cm.bpm.90min): 107%
- activity at 10 µM [2, 5]: 95.2%
- activity at 10 µM [2, 6]: 96.4%
- activity at 100 µM [2, 3]: 83.2%
- activity at 100 µM [2, 4]: 175%
- activity at 100 µM ([2]; 1.5 h, read-out: cm.bpm.90min): 208%
- activity at 100 µM [2, 5]: 94.6%
- activity at 100 µM [2, 6]: 140%
- activity at 0.01 µM [2, 7]: 135%
- activity at 0.01 µM [2, 8]: 92.2%
- activity at 0.01 µM ([2]; 24 h, read-out: cm.bpm.24hrs): 111%
- activity at 0.01 µM [2, 9]: 98%
- activity at 0.01 µM [2, 10]: 116%
- activity at 0.1 µM [2, 7]: 30.6%
- activity at 0.1 µM [2, 8]: 60.1%
- activity at 0.1 µM ([2]; 24 h, read-out: cm.bpm.24hrs): 50.6%
- activity at 0.1 µM [2, 9]: 49%
- activity at 0.1 µM [2, 10]: 49.7%
- activity at 1 µM [2, 7]: 81.2%
- activity at 1 µM [2, 8]: 110%
- activity at 1 µM ([2]; 24 h, read-out: cm.bpm.24hrs): 95.5%
- activity at 1 µM [2, 9]: 98.7%
- activity at 1 µM [2, 10]: 85.6%
- activity at 10 µM [2, 7]: 94.7%
- activity at 10 µM [2, 8]: 93.1%
- activity at 10 µM ([2]; 24 h, read-out: cm.bpm.24hrs): 119%
- activity at 10 µM [2, 9]: 90.5%
- activity at 10 µM [2, 10]: 112%
- activity at 100 µM [2, 7]: 30.7%
- activity at 100 µM [2, 8]: 58%
- activity at 100 µM ([2]; 24 h, read-out: cm.bpm.24hrs): 81.2%
- activity at 100 µM [2, 9]: 38.5%
- activity at 100 µM [2, 10]: 76.1%
